Measurements reported in US9938262B2, “Benzamides” (Merck Patent GmbH, priority 2011, dated 2018).

Target: T1, FSHR (Homo sapiens, UniProt P23945)
T1 construct: expressed in transfected cells; host or cells: CHO (Cho-FSHR-LUC-1-1-43)
Assay: EC50 of cyclic AMP production in CHO FSHR cells + EC20 FSH (Assay A)
Type: cell-based
Details: 1 h; 5 μM; effect relative to maximum response of the FSH standard; Table 1
How it was run: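 cAMP HTRF ratio (665/620 nm) read after 1 h, 37 °C exposure of CHO-FSHR cells to compound in presence of EC20 FSH ([…]) and IBMX 200 μM. Responses given relative to FSH standard maximum; EC50 derived.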

T1 sequence (P23945 18-695): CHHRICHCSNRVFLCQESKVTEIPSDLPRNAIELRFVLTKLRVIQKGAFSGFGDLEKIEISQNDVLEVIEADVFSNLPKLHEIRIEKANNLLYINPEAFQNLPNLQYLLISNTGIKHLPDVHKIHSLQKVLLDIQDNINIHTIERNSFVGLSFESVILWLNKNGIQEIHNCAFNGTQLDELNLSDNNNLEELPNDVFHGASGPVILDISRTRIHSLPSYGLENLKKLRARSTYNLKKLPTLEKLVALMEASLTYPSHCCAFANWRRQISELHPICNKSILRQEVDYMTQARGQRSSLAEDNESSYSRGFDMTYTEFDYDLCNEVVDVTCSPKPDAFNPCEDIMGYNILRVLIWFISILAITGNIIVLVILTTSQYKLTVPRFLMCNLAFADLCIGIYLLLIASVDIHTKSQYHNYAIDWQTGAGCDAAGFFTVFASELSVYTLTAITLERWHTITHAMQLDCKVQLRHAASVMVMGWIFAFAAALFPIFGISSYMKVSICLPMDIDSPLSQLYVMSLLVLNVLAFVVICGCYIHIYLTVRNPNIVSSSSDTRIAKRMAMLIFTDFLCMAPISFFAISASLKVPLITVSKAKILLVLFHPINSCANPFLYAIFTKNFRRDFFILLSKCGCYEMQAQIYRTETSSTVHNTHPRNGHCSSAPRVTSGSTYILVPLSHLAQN
T1 sequence (P01215 25-116 partner): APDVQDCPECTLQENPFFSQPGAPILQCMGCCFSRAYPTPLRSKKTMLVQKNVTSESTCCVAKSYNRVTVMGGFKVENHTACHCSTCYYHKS
T1 sequence (P01225 19-129 partner): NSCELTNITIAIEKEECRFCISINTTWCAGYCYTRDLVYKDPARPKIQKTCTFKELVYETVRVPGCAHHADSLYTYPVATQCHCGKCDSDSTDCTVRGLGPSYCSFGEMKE

| activation at 5 µM | SMILES |
| --- | --- |
| 39% | Cc1cc(C)c(C(=O)Nc2cc(C(=O)NCCCN3CCCC3=O)ccc2N2CCN(c3ccccc3C)CC2)o1 [Compound 51] |
| 22% | Cc1ccccc1N1CCN(c2ccc(C(=O)N[C@@H]3CCCN(C(=O)OC(C)(C)C)C3)cc2NC(=O)c2ccco2)CC1 [Compound 21] |
| 22% | Cc1ccccc1N1CCN(c2ccc(C(=O)NCCCN3CCCC3=O)cc2NC(=O)c2conc2C)CC1 [Compound 80] |
| 41% | Cc1ccccc1N1CCN(c2ccc(C(=O)NCCCN3CCCC3=O)cc2NS(=O)(=O)c2cccc3ncccc23)CC1 [Compound 229] |

Same assay, conditions: 1 h; 5 μM; effect relative to maximum response of the FSH standard; Table 2

| activation at 5 µM | SMILES |
| --- | --- |
| 38% | CCOC(=O)c1c[nH]nc1NC(=O)c1ccc(N2CCN(c3ccccc3C)CC2)c(NC(=O)c2coc(C3CC3)n2)c1 [Compound 314] |

Same assay, conditions: CHO FSHR cells + EC20 FSH; Table 1; read-out: Assay A EC50 of cyclic AMP production

| SMILES | EC50 |
| --- | --- |
| Cc1ccccc1N1CCN(c2ccc(C(=O)NCCCN3CCCC3=O)cc2NC(=O)c2coc(C(C)C)n2)CC1 [Compound 208] | 1 to 10 µM |
| Cc1cccc(N2CCN(c3ccc(C(=O)NCCCN4CCCC4=O)cc3NC(=O)c3ccc(C)o3)CC2)c1 [Compound 243] | 1 to 10 µM |
| CCCc1cc(C(=O)Nc2cc(C(=O)NCCCN3CCCC3=O)ccc2N2CCN(c3ccccc3C)CC2)co1 [Compound 220] | 1 to 10 µM |
| Cc1ccc(C(=O)Nc2cc(C(=O)NCCc3c[nH]cn3)ccc2N2CCN(c3ccccc3C)CC2)o1 [Compound 185, 5-Methyl-furan-2-carboxylic acid [5-[2-(1H-imidazol-4-yl)-ethylcarbamoyl]-2-(4-o-tolyl-piperazin-1-yl)-phenyl]-amide] | 1 to 10 µM |
| COc1ccc(-c2c[nH]nc2CNC(=O)c2ccc(N3CCN(c4ccccc4C)CC3)c(NC(=O)c3ccc(C)o3)c2)cc1 [Compound 172, 5-Methyl-furan-2-carboxylic acid [5-{[4-(4-methoxy-phenyl)-1H-pyrazol-3-ylmethyl]-carbamoyl}-2-(4-o-tolyl-piperazin-1-yl)-phenyl]-amide] | 1 to 10 µM |
| Cc1ccccc1N1CCN(c2ccc(C(=O)NCCCN3CCCC3=O)cc2NC(=O)c2ccoc2C)CC1 [Compound 68] | 1 to 10 µM |
| COc1ccccc1C(=O)Nc1cc(C(=O)NCCCN2CCCC2=O)ccc1N1CCN(c2ccccc2C)CC1 [Compound 41] | 1 to 10 µM |
| Cc1ccc(C(=O)Nc2cc(C(=O)NCCCN3CCCC3=O)ccc2N2CCN(c3ccccc3[N+](=O)[O-])CC2)o1 [Compound 261] | 1 to 10 µM |
| Cc1ccc(C(=O)Nc2cc(C(=O)NCCCN3CCCC3=O)ccc2N2CCN(c3ccccc3C)CC2)s1 [Compound 162] | 0.1 to 1 µM |
| Cc1ccc(C(=O)Nc2cc(C(=O)NC3CCN(C(=O)OC(C)(C)C)CC3)ccc2N2CCN(c3ccccc3C)CC2)o1 [Compound 175, 4-[3-[(5-methyl-furan-2-carbonyl)-amino]-4-(4-o-tolyl-piperazin-1-yl)-benzoylamino]-piperidine-1-carboxylic acid tert-butyl ester] | 1 to 10 µM |
| Cc1ccccc1N1CCN(c2ccc(C(=O)NCCCN3CCCC3=O)cc2NC(=O)C(C)(C)C)CC1 [Compound 177, 3-(2,2-Dimethyl-propionylamino)-N-[3-(2-oxo-pyrrolidin-1-yl)-propyl]-4-(4-o-tolyl-piperazin-1-yl)-benzamide] | 1 to 10 µM |
| Cc1ccccc1N1CCN(c2ccc(C(=O)NCc3ccc(Cl)cc3)cc2NC(=O)c2coc(C3CC3)n2)CC1 [Compound 235] | 1 to 10 µM |

Other lines, results leading:

| EC50 | SMILES |
| --- | --- |
| > 10 µM | Cc1ccccc1N1CCN(c2ccc(C(=O)NCCCN3CCCC3=O)cc2NC(=O)c2sc(Cl)nc2C)CC1 [Compound 201] |
| 1 to 10 µM | Cc1ccccc1N1CCN(c2ccc(C(=O)NCC3(CN4CCCC4)CC3)cc2NC(=O)c2ccco2)CC1 [Compound 154] |
| 1 to 10 µM | COc1ccccc1N1CCN(c2ccc(C(=O)NCCCN3CCCC3=O)cc2NC(=O)c2ccc(C)o2)CC1 [Compound 173, 5-Methyl-furan-2-carboxylic acid {2-[4-(2-methoxy-phenyl)-piperazin-1-yl]-5-[3-(2-oxo-pyrrolidin-1-yl)-propylcarbamoyl]-phenyl}-amide] |
| 0.1 to 1 µM | Cc1ccccc1N1CCN(c2ccc(C(=O)N[C@H]3O[C@@H](CO)[C@H](O)[C@@H]3O)cc2NC(=O)c2ccco2)CC1 [Compound 222] |
| > 10 µM | Cc1ccccc1N1CCN(c2ccc(C(=O)NCCCN3CCCC3=O)cc2NC(=O)c2sc(Br)nc2C)CC1 [Compound 72] |
| 1 to 10 µM | CC(=O)N(C)C[C@@H](NC(=O)c1ccc(N2CCN(c3ccccc3C)CC2)c(NC(=O)c2ccco2)c1)c1ccc(Cl)cc1 [Compound 57] |
| 1 to 10 µM | CCNC(=O)N1CCC[C@@H](NC(=O)c2ccc(N3CCN(c4ccccc4C)CC3)c(NC(=O)c3ccco3)c2)C1 [Compound 48, (R)-3-[3-[(furan-2-carbonyl)-amino]-4-(4-o-tolyl-piperazin-1-yl)-benzoylamino]-piperidine-1-carboxylic acid ethylamide] |
| 0.1 to 1 µM | Cc1ccccc1N1CCN(c2ccc(C(=O)NCCCc3ccccc3)cc2NC(=O)c2ccco2)CC1 [Compound 89] |

Same assay, conditions: CHO FSHR cells + EC20 FSH; Table 2; read-out: Assay A EC50 of cyclic AMP production

| SMILES | EC50 |
| --- | --- |
| Cc1ccccc1N1CCN(c2ccc(C(=O)NCCCC3CCS(=O)(=O)C3)cc2NC(=O)c2ccco2)CC1 (stereo not drawn) [Compound 377] | 0.1 to 1 µM |
| Cc1cnccc1N1CCN(c2ccc(C(=O)NCCCN3CCCC3=O)cc2NC(=O)c2coc(C3CC3)n2)CC1 [Compound 452] | 1 to 10 µM |
| Cc1ccccc1N1CCN(c2ccc(C(=O)NCCCN3CCCC3=O)cc2NC(=O)C(F)(F)F)CC1 [Compound 451] | 0.1 to 1 µM |
| O=C(NCCCN1CCCC1=O)c1ccc(N2CCN(c3ccccc3OC(F)(F)F)CC2)c(NC(=O)c2coc(C3CC3)n2)c1 [Compound 403] | 1 to 10 µM |
| CC(=O)NCCOCCOCCNC(=O)c1ccc(N2CCN(c3ccccc3C)CC2)c(NC(=O)c2coc(C3CC3)n2)c1 [Compound 424] | 0.1 to 1 µM |
| Cc1ccccc1N1CCN(c2ccc(C(=O)NC[C@H](O)c3ccccc3)cc2NC(=O)c2coc(C3CC3)n2)CC1 [Compound 566] | 0.1 to 1 µM |
| Cc1ccccc1N1CCN(c2ccc(C(=O)NCCCN3C(=O)CCC3C)cc2NC(=O)c2coc(C3CC3)n2)CC1 (stereo not drawn) [Compound 330] | 0.1 to 1 µM |
| Cc1ccc(C(=O)Nc2cc(C(=O)NCCCN3C(=O)OCC3(C)C)ccc2N2CCN(c3ccccc3C)CC2)o1 [Compound 369] | 1 to 10 µM |
| Cc1ccccc1N1CCN(c2ccc(C(=O)NCCCN3CCCC3=O)cc2NC(=O)c2cnc(C3CC3)o2)CC1 [Compound 386] | 0.1 to 1 µM |
| Cc1cncnc1N1CCN(c2ccc(C(=O)NCCc3cn(C)cn3)cc2NC(=O)c2coc(C3CC3)n2)CC1 [Compound 462] | 1 to 10 µM |
| Cc1ccccc1N1CCN(c2ccc(C(=O)NCCC#N)cc2NC(=O)c2coc(C3CC3)n2)CC1 [Compound 453] | 0.1 to 1 µM |
| Cc1ccccc1N1CCN(c2ccc(C(=O)NCCCN3CCOCC3)cc2NC(=O)c2coc(C3CC3)n2)CC1 [Compound 406] | 0.1 to 1 µM |
| Cc1ccccc1N1CCN(c2ccc(C(=O)NCc3cccc(-c4nccs4)c3)cc2NC(=O)c2coc(C3CC3)n2)CC1 [Compound 382] | 0.1 to 1 µM |
| COCc1cccc(CNC(=O)c2ccc(N3CCN(c4ccccc4C)CC3)c(NC(=O)c3ccco3)c2)c1 [Compound 484] | 0.1 to 1 µM |
| O=C(NCCCN1CCCC1=O)c1ccc(N2CCN(c3cccc4[nH]ccc34)CC2)c(NC(=O)c2coc(C3CC3)n2)c1 [Compound 553] | 0.1 to 1 µM |
| Cc1ccccc1N1CCN(c2ccc(C(=O)NCc3cccc(CN4CCOCC4)c3)cc2NC(=O)c2ccco2)CC1 [Compound 471] | 0.1 to 1 µM |
| Cc1ccc(C(=O)Nc2cc(C(=O)N3CC4(COC4)C3)ccc2N2CCN(c3ccccc3C)CC2)o1 [Compound 591] | > 10 µM |
| Cc1cc(N2CCN(c3ccc(C(=O)NCCCN4CCCC4=O)cc3NC(=O)c3coc(C4CC4)n3)CC2)ncn1 [Compound 597] | > 10 µM |
| Cc1ccccc1N1CCN(c2ccc(C(=O)NCCCNC(=O)C(C)C)cc2NC(=O)c2coc(C3CC3)n2)CC1 [Compound 446] | 0.1 to 1 µM |
| Cc1ccc(C(=O)Nc2cc(C(=O)NC[C@H](O)c3ccccc3)ccc2N2CCN(c3ccccc3C)CC2)o1 [Compound 584] | 1 to 10 µM |

Next, values leading:

| EC50 | SMILES |
| --- | --- |
| 1 to 10 µM | Cc1ccccc1N1CCN(c2ccc(C(=O)NCCCNC(=O)NCC3CCCCC3)cc2NC(=O)c2ccco2)CC1 [Compound 497] |
| 1 to 10 µM | Cn1ccnc1N1CCN(c2ccc(C(=O)NCCCN3CCOC3=O)cc2NC(=O)c2coc(C3CC3)n2)CC1 [Compound 513] |
| 0.1 to 1 µM | Cc1cccnc1N1CCN(c2ccc(C(=O)NCCc3c[nH]cn3)cc2NC(=O)c2coc(C3CC3)n2)CC1 [Compound 444] |
| 1 to 10 µM | Cc1ccccc1N1CCN(c2ccc(C(=O)NC3CCN(C4CCCC4)C3)cc2NC(=O)c2ccco2)CC1 (stereo not drawn) [Compound 345] |
| 0.1 to 1 µM | Cc1ccccc1N1CCN(c2ccc(C(=O)NC[C@@H](N)c3ccccc3)cc2NC(=O)c2coc(C3CC3)n2)CC1 [Compound 568] |
| < 0.1 µM | Cc1ccccc1N1CCN(c2ccc(C(=O)NCCN3C(=O)CCC3=O)cc2NC(=O)c2ccco2)CC1 [Compound 305] |
| > 10 µM | Cc1ccccc1N1CCN(c2ccc(C(=O)NCCCNC(=O)Nc3ccc(C(F)(F)F)cc3)cc2NC(=O)c2coc(C3CC3)n2)CC1 [Compound 428] |
| 0.1 to 1 µM | Cc1ccccc1N1CCN(c2ccc(C(=O)NCCNC3CS(=O)(=O)CC3O)cc2NC(=O)c2ccco2)CC1 (stereo not drawn) [Compound 371] |
| 1 to 10 µM | Cc1ccccc1C1(O)CCN(c2ccc(C(=O)NCCCN3CCCC3=O)cc2NC(=O)c2coc(C3CC3)n2)CC1 [Compound 539] |
| 1 to 10 µM | Cc1ccccc1N1CCN(c2ccc(C(=O)NCCc3cn(C)cn3)cc2N(C(=O)C(F)(F)F)C(=O)C(F)(F)F)CC1 [Compound 548] |
| 0.1 to 1 µM | COc1cccc(N2CCN(c3ccc(C(=O)NCCCN4CCCC4=O)cc3NC(=O)c3coc(C4CC4)n3)CC2)n1 [Compound 507] |
| 0.1 to 1 µM | Cc1ccccc1N1CCN(c2ccc(C(=O)NCCc3cccc(CN(C)C)c3)cc2NC(=O)c2coc(C3CC3)n2)CC1 [Compound 408] |
